Data as given in US20170190691A1, “NOVEL 5-ACYLSULFANYL-HISTIDINE COMPOUNDS AS PRECURSORS OF THE CORRESPONDING 5-SULFANYLHISTIDINES AND THEIR DISULFIDES” (TETRAGEDRON, priority 2014, published 2017).

What was measured:
Type in all cases: physicochemical
[1] = Analytical monitoring by 1H NMR of the hydrolysis of compound 3 and oxidation in situ into compound 27, D2O at ambient temperature; conditions: for % hydrolysis: 1H NMR
Experimental: f) Analytical monitoring by ^1H NMR of the hydrolysis of the 5-acylsulfanyl compound 3 and oxidation in situ into compound 27
Compound 3 is prepared and purified by column as described in Example 5. 30 mg of compound 3 are dissolved in 600 μL of D2O, the solution is transferred to an NMR tube, which is stored at ambient temperature. The conversion is monitored by ^1H NMR.

[2] = Analytical monitoring by HPLC of the hydrolysis of compound 3 and oxidation in situ into compound 27, aqueous fraction at 40° C.; conditions: water; for % hydrolysis: HPLC
Experimental: e) Analytical monitoring by HPLC of the hydrolysis of the 5-acylsulfanyl compound 3 and oxidation in situ into compound 27
Compound 3 is prepared and purified by column as described in Example 5, using an ethyl acetate/ethanol gradient, followed by elution with water. The aqueous fraction containing the pure compound 3 is placed in a water bath at 40° C. and heated under stirring for two days. Samples are collected every hour, and the mixture is analyzed by HPLC.

[3] = Hydrolysis of compound 3 in water at 90° C. in air, monitored by HPLC; conditions: after 7 h
Experimental: c) Preparation of the compound L-5-sulfanyl-α,N,N,N(trimethyl)-histidine (compound 26) by hydrolysis of the 5-acylsulfanyl compound 3
Compound 3 is prepared and purified by column as described in Example 5. 170 mg (0.6 mmoles) of compound 3 are dissolved in 10 mL of water, and the solution is heated at 90° C. in air for 7 h. The conversion is monitored by HPLC. The hydrolysis of compound 3 is complete after 7 h. The solution is evaporated to dryness. The residue is dissolved in a mixture of 5 mL of methanol and 93 mg (0.6 mmol) of dithiothreitol. After stirring for 4 h under an inert atmosphere, 2 mL of ethanol are added. A precipitate forms immediately, which is filtered and washed with ethanol (2×2 mL), then with ethyl ether (2×2 mL). After drying, 104 mg (72%) of L-5-sulfanyl-α,N,N,N(trimethyl)-histidine are obtained in the form of a beige powder.

[4] = Analytical monitoring by 1H NMR and HPLC-ELSD of the hydrolysis of compound 3 into compound 26 in the presence of a thiol (3-mercaptopropionic acid), D2O, 40° C.; conditions: 5 equivalents 3-mercaptopropionic acid
Experimental: b) Analytical monitoring by ^1H NMR of the hydrolysis of the 5-acylsulfanyl compound 3 into the compound L-5-sulfanyl-α,N,N,N(trimethyl)-histidine (Compound 26) in the presence of a thiol
Compound 3 is prepared and purified by column as described in Example 5. 100 mg (0.33 mmoles, 1 eq.) of compound 3 are dissolved in 2.4 mL of D2O. 172 mg of 3-mercaptopropionic acid (142 μL, 5 equivalents) are added, and the solution is heated at 40° C. The conversion is monitored by ^1H NMR and by HPLC-ELSD. The yield of hydrolysis of compound 3 is 90% after 3 h (monitored by ^1H NMR). Compound 26 is formed after 3 h 30 with a yield of 97% (HPLC-ELSD).

hydrolysis of compound 3 (extent, in words) ([1]; after 2 days): nearly complete
% hydrolysis ([1]; t = 0 h): 0%
% hydrolysis ([1]; t = 2 j): 86%
% hydrolysis ([1]; t = 2 h): 19%
% hydrolysis ([1]; t = 10 h): 26%
hydrolysis of compound 3 (extent, in words) ([2]; after 2 days): nearly complete
yield of compound 27 from hydrolysis and in situ oxidation of compound 3 ([2]; after 2 days): 80%
% hydrolysis ([2]; t = 0 h): 0%
% hydrolysis ([2]; t = 2 j): 95%
% hydrolysis ([2]; t = 2 h): 7%
% hydrolysis ([2]; t = 4 h): 21%
% hydrolysis ([2]; t = 6 h): 38%
% hydrolysis ([2]; t = 8 h): 60%
% hydrolysis ([2]; t = 18 h): 85%
hydrolysis of compound 3 (extent, in words) [3]: complete
yield of compound 26 formed from compound 3 ([4]; after 3 h 30, HPLC-ELSD): 97%
yield of hydrolysis of compound 3 ([4]; after 3 h, 1H NMR): 90%
SMILES: CC(=O)Sc1nc[nH]c1C[C@@H](C(=O)[O-])[N+](C)(C)C [Compound 3, L-5-acetylsulfanyl-α,N,N,N(trimethyl)-histidine]
